For this experiment, the target named is Recombinant AMPK α1/β1/γ1 complex (Homo sapiens (Human), UniProt Q13131+Q9Y478). The experiment is described as follows: In vitro pAMPK1 kinase activation assay (ADP-Glo, SAMS peptide). It is filed as biochemical. The settings on record: AMPK α1/β1/γ1 pre-activated with CAMKK2; 12-point curve; 15 min compound incubation. The procedure:
Compound effect on AMPK enzyme activation was determined in a cell-free format with a 12-point concentration curve. The ADP-Glo detection system was used to determine phosphorylation of a SAMS peptide substrate. Recombinant AMPK α1/β1/γ1 complex was pre-activated by phosphorylation with CAMKK2 followed by incubated with compound for 15 minutes prior to the SAMS phosphorylation reaction. Activity curves and EC50 values were fitted by interpolation to an ATP:ADP standard curve as indicated by the ADP-Glo manufacturer using Prism software.
A general note: ADP-Glo first removes unused ATP, then detects ADP through luciferase.

Some results are limits rather than exact numbers.

Among the data in patent publication US11407768B2, “AMPK activators” (Kallyope, Inc., priority 2020, dated 2022) are EC50 values, retold here.

Sequence of Recombinant AMPK α1/β1/γ1 complex (Q13131 whole entry): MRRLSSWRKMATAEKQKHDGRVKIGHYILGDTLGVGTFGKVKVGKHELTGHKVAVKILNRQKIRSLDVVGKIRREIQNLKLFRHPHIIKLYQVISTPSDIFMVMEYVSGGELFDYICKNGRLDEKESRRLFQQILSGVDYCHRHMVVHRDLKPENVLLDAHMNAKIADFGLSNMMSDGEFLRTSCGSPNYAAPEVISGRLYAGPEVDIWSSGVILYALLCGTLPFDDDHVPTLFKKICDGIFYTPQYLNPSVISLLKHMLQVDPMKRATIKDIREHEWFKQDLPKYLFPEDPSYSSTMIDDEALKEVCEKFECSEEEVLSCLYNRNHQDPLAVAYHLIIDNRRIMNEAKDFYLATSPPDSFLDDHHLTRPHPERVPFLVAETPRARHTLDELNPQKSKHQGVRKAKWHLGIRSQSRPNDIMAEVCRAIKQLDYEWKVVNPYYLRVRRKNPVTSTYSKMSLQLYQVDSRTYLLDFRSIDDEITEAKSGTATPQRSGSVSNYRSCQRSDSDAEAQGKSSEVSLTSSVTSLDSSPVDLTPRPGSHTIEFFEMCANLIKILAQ
Sequence of Recombinant AMPK α1/β1/γ1 complex (Q9Y478 whole entry): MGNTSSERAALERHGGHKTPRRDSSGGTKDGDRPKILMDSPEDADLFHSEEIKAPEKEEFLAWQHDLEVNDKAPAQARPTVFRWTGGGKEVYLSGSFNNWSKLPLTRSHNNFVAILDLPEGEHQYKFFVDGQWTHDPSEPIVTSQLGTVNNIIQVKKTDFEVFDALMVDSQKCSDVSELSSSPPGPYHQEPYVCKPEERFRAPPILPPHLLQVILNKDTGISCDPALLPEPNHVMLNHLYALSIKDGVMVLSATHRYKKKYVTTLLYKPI
Sequence of Recombinant AMPK α1/β1/γ1 complex (P54619 whole entry partner): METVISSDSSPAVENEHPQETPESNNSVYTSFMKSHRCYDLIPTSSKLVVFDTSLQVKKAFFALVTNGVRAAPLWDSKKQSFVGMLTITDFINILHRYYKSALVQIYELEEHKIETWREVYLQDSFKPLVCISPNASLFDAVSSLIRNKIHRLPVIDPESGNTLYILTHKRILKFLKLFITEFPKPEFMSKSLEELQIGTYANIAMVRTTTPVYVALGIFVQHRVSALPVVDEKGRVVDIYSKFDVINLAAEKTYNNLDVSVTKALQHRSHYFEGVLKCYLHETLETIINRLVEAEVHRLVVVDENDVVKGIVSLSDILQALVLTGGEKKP

Usually EC50 stands for the concentration at which the effect is half-maximal. With `O=C(O)C(O)CNCc1ccc(-c2ccc(-c3nc4nc(O[C@@H]5CO[C@H]6[C@@H]5OC[C@H]6O)[nH]c4cc3Cl)cc2)cc1` (stereo partly drawn) [Compound 22, 3-(((4′-(6-chloro-2-(((3R,3aR,6R,6aR)-6-hydroxyhexahydrofuro[3,2-b]furan-3-yl)oxy)-1H-imidazo[4,5-b]pyridin-5-yl)-[1,1′-biphenyl]-4-yl)methyl)amino)-2-hydroxypropanoic acid], the concentration for a half-maximal effect (EC50) stood at 0.63 nM.

For the compound `O=S(=O)(O)c1ccc(-c2ccc(-c3nc4nc(O[C@@H]5CO[C@H]6[C@@H]5OC[C@H]6O)[nH]c4cc3Cl)cc2)cc1` [Compound 69, 4′-(6-chloro-2-(((3R,3aR,6R,6aR)-6-hydroxyhexahydrofuro[3,2-b]furan-3-yl)oxy)-1H-imidazo[4,5-b]pyridin-5-yl)-[1,1′-biphenyl]-4-sulfonic acid], the EC50 stood at 1.84 nM.

On to `O[C@@H]1CO[C@H]2[C@@H]1OC[C@H]2Oc1nc2cc(-c3ccc(-c4ccc(CN5C[C@@H](O)[C@@H](O)C5)cc4)cc3)c(Cl)cc2[nH]1` [Compound 61, (3S,4R)-1-((4′-(6-chloro-2-(((3R,3aR,6R,6aR)-6-hydroxyhexahydrofuro[3,2-b]furan-3-yl)oxy)-1H-benzo[d]imidazol-5-yl)-[1,1′-biphenyl]-4-yl)methyl)pyrrolidine-3,4-diol], for which the EC50 was 1.36 nM.

On to `O=C(NCCS(=O)(=O)O)c1ccc(-c2ccc(-c3nc4nc(O[C@@H]5CO[C@H]6[C@@H]5OC[C@H]6O)[nH]c4cc3Cl)cc2)cc1` [Compound 5, 2-(4′-(6-chloro-2-(((3R,3aR,6R,6aR)-6-hydroxyhexahydrofuro[3,2-b]furan-3-yl)oxy)-1H-imidazo[4,5-b]pyridin-5-yl)-[1,1′-biphenyl]-4-ylcarboxamido)ethanesulfonic acid], for which the EC50 amounted to 0.86 nM.

Turning to `O=P(O)(O)c1ccc(-c2ccc(-c3nc4nc(O[C@@H]5CO[C@@H](CO)[C@@H]5O)[nH]c4cc3Cl)cc2)cc1` [Compound 68, (4′-(6-chloro-2-(((3R,4S,5S)-4-hydroxy-5-(hydroxymethyl)tetrahydrofuran-3-yl)oxy)-1H-imidazo[4,5-b]pyridin-5-yl)-[1,1′-biphenyl]-4-yl)phosphonic acid], the EC50 was > 10000 nM.

Regarding `O=P(O)(O)c1ccc(-c2ccc(-c3nc4nc(O[C@H]5CO[C@H](CO)[C@@H](O)C5)[nH]c4cc3Cl)cc2)cc1` [Compound 12, (4′-(6-chloro-2-(((3R,5S,6R)-5-hydroxy-6-(hydroxymethyl)tetrahydro-2H-pyran-3-yl)oxy)-1H-imidazo[4,5b]pyridin-5-yl)-[1,1′-biphenyl]-4-yl)phosphonic acid], the EC50 came to 152 nM.

Take `O=S(=O)(NC[C@H](O)[C@@H](O)[C@H](O)[C@H](O)CO)c1ccc(-c2ccc(-c3cc4nc(O[C@@H]5CO[C@H]6[C@@H]5OC[C@H]6O)[nH]c4cc3Cl)cc2)cc1` [Compound 71]: the EC50 was 0.63 nM.

Consider `OCC1CN(Cc2ccc(-c3ccc(-c4cc5nc(O[C@@H]6CO[C@H]7[C@@H]6OC[C@H]7O)[nH]c5cc4Cl)cc3)cc2)C1` [Compound 63, (3R,3aR,6R,6aR)-6-((6-chloro-5-(4′((3-(hydroxymethyl)azetidin-1-yl)methyl)-[1,1′-biphenyl]-4-yl)-1H-benzo[d]imidazol-2-yl)oxy)hexahydrofuro[3,2-b]furan-3-ol], for which the EC50 was 1.09 nM.

On to `CN(CCS(=O)(=O)O)C(=O)c1ccc(-c2ccc(-c3nc4nc(O[C@@H]5CO[C@H]6[C@@H]5OC[C@H]6O)[nH]c4cc3Cl)cc2)cc1` [Compound 8, 2-(4′-(6-chloro-2-(((3R,3aR,6R,6aR)-6-hydroxyhexahydrofuro[3,2-b]furan-3-yl)oxy)-1H-imidazo[4,5-b]pyridin-5-yl)-N-methyl-[1,1′-biphenyl]4-carboxamido)ethane-1-sulfonic acid], for which the EC50 was 1.78 nM.

With `CN(CCOCCO)Cc1ccc(-c2ccc(-c3cc4nc(O[C@@H]5CO[C@H]6[C@@H]5OC[C@H]6O)[nH]c4cc3Cl)cc2)cc1` [Compound 62, (3R,3aR,6R,6aR)-6-((6-chloro-5-(4′-(((2-(2-hydroxyethoxy)ethyl)(methyl)amino)methyl)-[1,1′-biphenyl]-4-yl)-1H-benzoldlimidazol-2-yl)oxy)hexahydrofuro[3,2-b]furan-3-ol], the EC50 is 1.3 nM.

As for `OCC1(CO)CCN(Cc2ccc(-c3ccc(-c4nc5nc(O[C@@H]6CO[C@H]7[C@@H]6OC[C@H]7O)[nH]c5cc4Cl)cc3)cc2)CC1` [Compound 54, (1((4′-(6-chloro-2-(((3R,3aR,6R,6aR)-6-hydroxyhexahydrofuro[3,2-b]furan-3-yl)oxy)-1H-imidazo[4,5-b]pyridin-5-yl)-[1,1′-biphenyl]-4-yl)methyl)piperidine-4,4-diyl)dimethanol], the EC50 amounted to 0.57 nM.

Turning to `O[C@@H]1CCN(Cc2ccc(-c3ccc(-c4cc5nc(O[C@@H]6CO[C@H]7[C@@H]6OC[C@H]7O)[nH]c5cc4Cl)cc3)cc2)C1` [Compound 59, (R)-1-((4′-(6-chloro-2-(((3R,3aR,6R,6aR)-6-hydroxyhexahydrofuro[3,2-b]furan-3-yl)oxy)-1H-benzo[d]imidazol-5-yl)-[1,1′-biphenyl]-4-yl)methyl)pyrrolidin-3-ol], the EC50 stood at 1.04 nM.

In the case of `O[C@@H]1CO[C@H]2[C@@H]1OC[C@H]2Oc1nc2cc(-c3ccc(-c4ccc(CN5C[C@H](O)[C@@H](O)C5)cc4)cc3)c(Cl)cc2[nH]1` [Compound 64], the EC50 stood at 1.4 nM.

As to `O=S(=O)(NC[C@H](O)[C@@H](O)[C@H](O)[C@H](O)CO)c1ccc(-c2ccc(-c3nc4nc(O[C@@H]5CO[C@H]6[C@@H]5OC[C@H]6O)[nH]c4cc3Cl)cc2)cc1` [Compound 3, 4′-(6-chloro-2-(((3R,3aR,6R,6aR)-6-hydroxyhexahydrofuro[3,2-b]furan-3-yl)oxy)-1H-imidazo [4,5-b]pyridin-5-yl)-N-((2S,3R,4R,5R)-2,3,4,5,6-pentahydroxyhexyl)-[1,1′-biphenyl]-4-sulfonamide], the EC50 is 0.09 nM.

With `O=C(NCCOCCO)c1ccc(-c2ccc(-c3cc4nc(O[C@@H]5CO[C@H]6[C@@H]5OC[C@H]6O)[nH]c4cc3Cl)cc2)c(O)c1` [Compound 75, 4′-(6-chloro-2-(((3R,3aR,6R,6aR)-6-hydroxyhexahydrofuro[3,2-b]furan-3-yl)oxy)-1H-benzo[d]imidazol-5-yl)-2-hydroxy-N-(2-(2-hydroxyethoxy)ethyl)-[1,1′-biphenyl]-4-carboxamide], the EC50 worked out at 0.37 nM.

On to `O=C(CCCNCc1ccc(-c2ccc(-c3cc4nc(O[C@@H]5CO[C@H]6[C@@H]5OC[C@H]6O)[nH]c4cc3Cl)cc2)cc1)NC(CO)CO` [Compound 38, 4-(((4′-(6-chloro-2-(((3R,3aR,6R,6aR)-6-hydroxyhexahydrofuro[3,2-b]furan-3-yl)oxy)-1H-benzo[d]imidazol-5-yl)-[1,1′-biphenyl]-4-yl)methyl)amino)-N-(1,3-dihydroxypropan-2-yl)butanamide], for which the EC50 was determined as 2.4 nM.

Take `O=C(NCC(CS(=O)(=O)O)c1ccc(Cl)cc1)c1ccc(-c2ccc(-c3nc4nc(O[C@@H]5CO[C@H]6[C@@H]5OC[C@H]6O)[nH]c4cc3Cl)cc2)cc1` (stereo partly drawn) [Compound 7, 3-(4′-(6-chloro-2-(((3R,3aR,6R,6aR)-6-hydroxyhexahydrofuro[3,2-b]furan-3-yl)oxy)-1H-imidazo[4,5-b]pyridin-5-yl)-[1,1′-biphenyl]-4-carboxamido)-2-(4-chlorophenyl)propane-1-sulfonic acid]: the EC50 was 1.22 nM.

Regarding `OCC1(CO)CN(Cc2ccc(-c3ccc(-c4cc5nc(O[C@@H]6CO[C@H]7[C@@H]6OC[C@H]7O)[nH]c5cc4Cl)cc3)cc2)C1` [Compound 66, (1-((4′-(6-chloro-2-(((3R,3aR,6R,6aR)-6-hydroxyhexahydrofuro[3,2-b]furan-3-yl)oxy)-1H-benzo[d]imidazol-5-yl)-[1,1′-biphenyl]-4-yl)methyl)azetidine-3,3-diyl)dimethanol], the EC50 is 0.8 nM.

Take `O=C(NCCCP(=O)(O)O)c1ccc(-c2ccc(-c3nc4nc(O[C@@H]5CO[C@H]6[C@@H]5OC[C@H]6O)[nH]c4cc3Cl)cc2)cc1` [Compound 14, (3-(4′-(6-chloro-2-(((3R,3aR,6R,6aR)-6-hydroxyhexahydrofuro[3,2-b]furan-3-yl)oxy)-1H-imidazo[4,5-b]pyridin-5-yl)-[1,1′-biphenyl]-4-carboxamido)propyl)phosphonic acid]: the EC50 was found to be 0.5 nM.

`OCCOCC1CN(Cc2ccc(-c3ccc(-c4cc5nc(O[C@@H]6CO[C@H]7[C@@H]6OC[C@H]7O)[nH]c5cc4Cl)cc3)cc2)C1` [Compound 50]: the EC50 turned out to be 1.46 nM.

As to `CN(CCOCCO)C(=O)c1ccc(-c2ccc(-c3cc4nc(O[C@@H]5CO[C@H]6[C@@H]5OC[C@H]6O)[nH]c4cc3Cl)cc2)cc1` [Compound 48, 4′-(6-chloro-2-(((3R,3aR,6R,6aR)-6-hydroxyhexahydrofuro[3,2-b]furan-3-yl)oxy)-1H-benzo [d]imidazol-5-yl)-N-(2-(2-hydroxyethoxy)ethyl)-N-methyl-[1,1′-biphenyl]-4-carboxamide], the EC50 came to 1.16 nM.

For the compound `OCCOCCNCc1ccc(-c2ccc(-c3cc4nc(O[C@@H]5CO[C@H]6[C@@H]5OC[C@H]6O)[nH]c4cc3Cl)cc2)c(O)c1` [Compound 74], the EC50 is 0.15 nM.

For `OC[C@@H](O)[C@@H](O)[C@H](O)[C@@H](O)CNCc1ccc(-c2ccc(-c3cc4nc(O[C@@H]5CO[C@H]6[C@@H]5OC[C@H]6O)[nH]c4cc3Cl)cc2)cc1` [Compound 65, (2R,3R,4R,5S)-6-(((4′-(6-chloro-2-(((3R,3aR,6R,6aR)-6-hydroxyhexahydrofuro[3,2-b]furan-3-yl)oxy)-1H-benzo [d]imidazol-5-yl)-[1,1′-biphenyl]-4-yl)methyl)amino)hexane-1,2,3,4,5-pentaol], the EC50 was determined as 0.77 nM.
